In patent publication US20200329707A1, “PYRAZOLAMIDE COMPOUND HAVING INSECTICIDAL ACTIVITY AND USE THEREOF” (JIANGSU FLAG CHEMICAL INDUSTRY CO., LTD., priority 2017, published 2020):

Assays:
Format in all cases: in vivo
Frankliniella intonsa = test: Insecticidal effect on Frankliniella intonsa, treated filter paper in petri dish; conditions: 60 ppm reagent solution; nymphs; 72 hrs
Procedure: (§1) The test reagents were all individually dissolved in a mixed solvent of acetone:[…] (1:1) to give a 1000 mg/L solution. 1% Tween-80 was added as an emulsifier to each solution. These solutions were then diluted with 1% Tween-20 solution in water to give desired concentrations of test solutions. An aqueous solution containing 1% Tween-20 was used as a control.
On the bottom of a glass petri dish with a diameter of 6 cm, a piece of filter paper with the same diameter was laid. 1 mL of the reagent solution was drawn by a pipette and uniformly dripped on the filter paper. After the acetone was volatilized, Nymphs of Frankliniella intonsa were transferred from Bombax ceiba with a brush pen to the filter paper in the petri dish. After 0.5-1 h when the insect body was fully covered with the reagent, 3 cm-long petals of Bombax ceiba were placed and the Petri dish were covered. 3 replicates were set for each treatment. After the insects were inoculated, the petri dish was placed in an insect-cultivating chamber at 25° C. with a 16-h-light/8-h-dark photoperiod. 72 hrs after the insects were inoculated, the deaths of Frankliniella intonsa were investigated to calculate the mortality.

Helicoverpa armigera = test: Insecticidal effect on Helicoverpa armigera, immersed cabbage leaf discs in 24-well plate; conditions: foliar, 72 h, read-out: Insecticidal activity (%) on Helicoverpa armigera (mortality %)
Procedure: as §1
Third instar larvae of Helicoverpa armigera were used, and the insecticidal effect test was carried out by feeding with leaves immersed with various compounds. The cabbage leaves that had not been exposed to insecticides were punched into leaf discs having a diameter of […]. The leaf discs were immersed in each compound solution for 30 s. Then the leaf discs were placed on absorbent paper and air-dried until there were no obvious water stains on the leaf discs. A washed 24-well plate was prepared, and about 1 ml of water agar medium was fed to each well. After solidification, the treated leaf discs were placed on the medium in the 24-well plate, and then 1 3rd-instar larva of Helicoverpa armigera was inoculated into each well. The 24-well plate was covered after inoculation, placed in an insect cultivating chamber at 25° C. with a 16-h-light/8-h-dark photoperiod. The number of deaths in 3 days was investigated, and the mortality was calculated.

Spodoptera litura = test: Insecticidal effect on Spodoptera litura, feeding with immersed cabbage leaf discs; conditions: 40 ppm reagent solution; 3rd instar larvae; deaths in 5 days
Procedure: as §1
Third instar larvae of Spodoptera litura were used, and the insecticidal effect test was carried out by feeding with leaves immersed with various compounds. The cabbage leaves that had not been exposed to insecticides were cut into leaf discs of about 40 square-mm with scissors. The leaf discs were immersed in each compound solution for 30 s. Then the leaf discs were placed on absorbent paper and air-dried until there were no obvious water stains on the leaf discs. The leaf discs soaked with the reagents were placed in a petri dish (7 cm), each petri dish having 3 leaf discs. The 3rd instar larvae of Spodoptera litura raised on the indoor cabbage plants were gently picked up with a pen brush and placed on the leaf discs in the petri dish, each petri dish having 10-15 insects. After the insects were inoculated, the petri dish was covered, and placed in an insect-cultivating chamber at 25° C. with a 16-h-light/8-h-dark photoperiod. The number of deaths in 5 days was investigated, and the mortality was calculated.

SMILES	control effect on Frankliniella intonsa (Frankliniella intonsa)	mortality at 5 ppm (Helicoverpa armigera)	mortality at 15 ppm (Helicoverpa armigera)	control effect on Spodoptera litura (Spodoptera litura)
Cc1cc(Cl)cc(C(=O)NC(C)(C)C(N)=O)c1NC(=O)c1cc(Br)nn1-c1ncccc1Cl [Compound 1.1, N-(2-N-((1-amino-2-methyl-1-acylpropan-2-yl)-formyl)-4-chloro-6-methylphenyl)-1-(3-chloropyridin-2-yl)-3-bromo-1H-pyrazol-5-carboxamide]	more than 80%	75%	87.5%	more than 80%
CC(C)(NC(=O)c1cc(Cl)cc(Cl)c1NC(=O)c1cc(Cl)nn1-c1ncccc1Cl)C(N)=O [KC1]	–	10%	46.7%	–
CC(C)(NC(=O)c1cc(Cl)cc(Cl)c1NC(=O)c1cc(Br)nn1-c1ncccc1Cl)C(N)=O [KC2]	–	16.7%	37.5%	–
